Measurements as given in BigSolDB 2.1.

O=C(Nc1ccc(Cl)cc1)Nc1ccc(Cl)c(Cl)c1
solubility (mole fraction)
Settings | 288.15 K | 293.15 K | 298.15 K | 303.15 K | 308.15 K | 313.15 K | 318.15 K
in ethylene glycol | 4.25e-06 | 5.89e-06 | 8.3e-06 | 1.02e-05 | 1.38e-05 | 2.14e-05 | 2.64e-05
in water | 1.96e-09 | 2.38e-09 | 2.85e-09 | 3.78e-09 | 5.72e-09 | 7.48e-09 | 9.28e-09
